Measured values taken from patent publication US20250186456A1, “PYRIMIDINE-FUSED CYCLIC COMPOUND AND PREPARATION METHOD AND USE THEREOF” (Genfleet Therapeutics (Shanghai) Inc., priority 2021, published 2025).
pIC50: −log10 of the molar value. Read-outs that look alike come from different tables or passages of the source.

Columns and labels:
Assay type in all cases: cell-based, human
[1] = system: AsPC-1 cells (KRAS G12D mutation); test: Cell proliferation inhibition assay, 3D, CellTiter-Glo 3D, AsPC-1; conditions: Homo sapiens, ASPC1, 120 h, AsPC-1 3D sphere model, 5 days incubation
Summary of the method: (§1)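 Spheroids (800 AsPC-1 or 400 AGS cells/well; RPMI-1640 or F-12K with 10% FBS) formed overnight, then were dosed on day 2 with a 3.16-fold series at 0.1% DMSO. After 5 days, viability was read by CellTiter-Glo 3D luminescence, and IC50 came from four-parameter fits of inhibition versus DMSO control and medium blank.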

[2] = system: p-ERK in AGS cells (KRAS G12D mutation); test: Cell p-ERK assay (HTRF, Advance ERK phospho-T202/Y204 kit); conditions: Homo sapiens, read-out: AGS p-ERK IC50
Summary of the method: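 AGS cells (endogenous KRAS G12D) seeded at ~20000 cells/well overnight, then treated 3 h with 3.16-fold compound dilutions, 0.1% DMSO final. Lysates assayed for phospho-T202/Y204 ERK by HTRF after 4 h antibody incubation; inhibition vs DMSO and blank, IC50 by four-parameter fit.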

AGS cells (KRAS G12D) = test: Cell proliferation inhibition assay, 3D, CellTiter-Glo 3D, AGS; conditions: Homo sapiens, 120 h, AGS 3D sphere model, 5 days incubation
Summary of the method: as §1

[3] = AGS cells, 3 hours incubation with compound, HTRF

## C#Cc1c(F)ccc2cccc(-c3nc4c5c(nc(OC[C@@]67CCCN6CCC7=C)nc5c3F)N3C[C@H]5CC[C@H](N5)[C@H]3[C@H](C)O4)c12 [Example Z639, (5S,5aS,6S,9R)-2-(8-ethynyl-7-fluoronaphthalen-1-yl)-1-fluoro-5-methyl-12-(((S)-1-methylenetetrahydro-1H-pyrrolizin-7a (5H)-yl)methoxy)-5a,6,7,8,9,10-hexahydro-5H-4-oxa-3,10a, 11, 13,14-pentaaza-6,9-methanonaphtho[1,8-ab]heptalene]
[1]
  pIC50: 7.03
[2]; [3]
  pIC50: 7.48
AGS cells (KRAS G12D)
  pIC50: 6.95

## C#Cc1c(F)ccc2cc(O)cc(-c3nc4c5c(nc(OCC6(CO)CC6)nc5c3F)N3C[C@H]5CC[C@H](N5)[C@H]3[C@H](C)O4)c12 [Example Z708, 5-ethynyl-6-fluoro-4-((5S,5aS,6S,9R)-1-fluoro-12-((1-(hydroxymethyl)cyclopropyl)methoxy)-5-methyl-5a,6,7,8,9,10-hexahydro-5H-4-oxa-3,10a, 11,13,14-pentaaza-6,9-methanonaphtho[1,8-ab]heptalene-2-yl) naphthalen-2-ol]
[1]
  pIC50: 6.03
[2]; AGS, 3 h
  pIC50: 7.41
AGS cells (KRAS G12D)
  pIC50: 6.75

## C#Cc1c(F)ccc2cccc(-c3nc4c5c(nc(OCC67CCCN6CC(=C)C7)nc5c3F)N3C[C@H]5CC[C@H](N5)[C@H]3[C@H](C)O4)c12 (stereo partly drawn) [Example Z590, (5S,5aS,6S,9R)-2-(8-ethynyl-7-fluoronaphthalen-1-yl)-1-fluoro-5-methyl-12-((2-methylenetetrahydro-1H-pyrrolizin-7a (5H)-yl)methoxy)-5a,6,7,8,9,10-hexahydro-5H-4-oxa-3,10a,11,13,14-pentaaza-6,9-methanonaphtho[1,8-ab]heptalene]
[1]
  pIC50: 6.94
[2]; [3]
  pIC50: 8.15
AGS cells (KRAS G12D)
  pIC50: 7.76

## C#Cc1c(F)ccc2cccc(-c3nc4c5c(nc(OCC67CC8CC8N6CCC7=C)nc5c3F)N3C[C@H]5CC[C@H](N5)[C@H]3[C@H](C)O4)c12 (stereo partly drawn) [Example Z635, (5S,5aS,6S,9R)-2-(8-ethynyl-7-fluoronaphthalen-1-yl)-1-fluoro-5-methyl-12-((5-methylenehexahydrocyclopropa[b]pyrrolizin-5a (3H)-yl)methoxy)-5a,6,7,8,9,10-hexahydro-5H-4-oxa-3,10a, 11,13,14-pentaaza-6,9-methanonaphtho[1,8-ab]heptalene]
[1]
  pIC50: 6.66
[2]; [3]
  pIC50: 7.30
AGS cells (KRAS G12D)
  pIC50: 6.65

## C#Cc1c(F)ccc2cc(O)cc(-c3nc4c5c(nc(OCC67CC(=C)CN6CC(=C)C7)nc5c3F)N3C[C@H]5CC[C@H](N5)[C@H]3CCO4)c12 [Example Z598]
[1]
  pIC50: 8.26
[2]; [3]
  pIC50: 9.17
AGS cells (KRAS G12D)
  pIC50: 8.91

## C#Cc1c(F)ccc2cccc(-c3nc4c5c(nc(OCC67CCCN6CC(=CF)C7)nc5c3F)N3C[C@H]5CC[C@H](N5)[C@H]3[C@H](C)O4)c12 (stereo partly drawn) [Example Z601, (5S,5aS,6S,9R)-2-(8-ethynyl-7-fluoronaphthalen-1-yl)-1-fluoro-12-((2-(fluoromethylene)tetrahydro-1H-pyrrolizin-7a (5H)-yl)methoxy)-5-methyl-5a,6,7,8,9,10-hexahydro-5H-4-oxa-3,10a, 11, 13, 14-pentaaza-6,9-methanonaphtho[1,8-ab]heptalene]
[1]
  pIC50: 7.41
[2]; [3]
  pIC50: 7.98
AGS cells (KRAS G12D)
  pIC50: 7.87

## C#Cc1c(Cl)ccc2cccc(-c3nc4c5c(nc(OCC67CCCN6CC(=C)C7)nc5c3F)N3C[C@H]5CC[C@H](N5)[C@H]3[C@H](C)O4)c12 (stereo partly drawn) [Example Z593, (5S,5aS,6S,9R)-2-(7-chloro-8-ethynylnaphthalen-1-yl)-1-fluoro-5-methyl-12-((2-methylenetetrahydro-1H-pyrrolizin-7a (5H)-yl)methoxy)-5a,6,7,8,9,10-hexahydro-5H-4-oxa-3,10a, 11,13, 14-pentaaza-6,9-methanonaphtho[1,8-ab]heptalene]
[1]
  pIC50: 7.10
[2]; [3]
  pIC50: 7.54
AGS cells (KRAS G12D)
  pIC50: 7.45

## C#Cc1cccc2cc(N)cc(-c3nc4c5c(nc(OCC6(CN7CCC(F)(F)C7)CC6)nc5c3F)N3C[C@H]5CC[C@H](N5)[C@H]3[C@H](C)O4)c12 [Example Z712, 4-((5S,5aS,6S,9R)-12-((1-((3,3-difluoropyrrolidin-1-yl)methyl)cyclopropyl)methoxy)-1-fluoro-5-methyl-5a,6,7,8,9,10-hexahydro-5H-4-oxa-3,10a, 11, 13, 14-pentaaza-6,9-methanonaphtho[1,8-ab]heptalen-2-yl)-5-ethynylnaphthalen-2-amine]
[1]
  pIC50: 7.52
[2]; [3]
  pIC50: 7.55
AGS cells (KRAS G12D)
  pIC50: 7.22

## C#Cc1c(F)ccc2cccc(-c3nc4c5c(nc(OCC67CC(=C)CN6[C@@H]6C[C@@H]6C7)nc5c3F)N3C[C@H]5CC[C@H](N5)[C@H]3[C@H](C)O4)c12 (stereo partly drawn) [Example Z603, (5S,5aS,6S,9R)-2-(8-Ethynyl-7-Fluoronaphthalen-1-Yl)-1-Fluoro-5-Methyl-12-(((1aR,6aR)-4-Methylenehexahydrocyclopropa[b]Pyrrolizin-5a (3H)-Yl)Methoxy)-5a,6,7,8,9,10-Hexahydro-5H-4-Oxa-3,10a,11,13,14-Pentaaza-6,9-Methanonaphtho[1,8-Ab]Heptalene]
[1]
  pIC50: 6.66
[2]; [3]
  pIC50: 7.19
AGS cells (KRAS G12D)
  pIC50: 6.96

## C#Cc1cccc2c(F)c(N)cc(-c3nc4c5c(nc(OCC67C[C@@H](F)CN6CCC7=C)nc5c3F)N3C[C@H]5CC[C@H](N5)[C@H]3[C@H](C)O4)c12 (stereo partly drawn) [Example Z728, 5-ethynyl-1-fluoro-4-((5S,5aS,6S,9R)-1-fluoro-12-(((6R)-6-fluoro-1-methylenetetrahydro-1H-pyrrolizin-7a (5H)-yl)methoxy)-5-methyl-5a,6,7,8,9,10-hexahydro-5H-4-oxa-3,10a, 11, 13,14-pentaaza-6,9-methanonaphtho[1,8-ab]heptalene-2-yl) naphthalen-2-amine]
[1]
  pIC50: 8.27
[2]; [3]
  pIC50: 9.02
AGS cells (KRAS G12D)
  pIC50: 8.43

## C#Cc1c(F)ccc2cccc(-c3nc4c5c(nc(OC[C@@]67CCCN6C[C@@H]6C[C@@H]67)nc5c3F)N3C[C@H]5CC[C@H](N5)[C@H]3[C@H](C)O4)c12 (single isomer, unassigned) [Example Z626-2]
[1]
  pIC50: 7.25
[2]; [3]
  pIC50: 7.69
AGS cells (KRAS G12D)
  pIC50: 7.55

## C[C@@H]1Oc2nc(-c3cc(N)cc4ccc(F)c(F)c34)c(F)c3nc(OCC45CCCN4CC(F)(F)C5)nc(c23)N2C[C@H]3CC[C@H](N3)[C@@H]12 (stereo partly drawn) [Example Z720, 4-((5S,5aS,6S,9R)-12-((2,2-difluorotetrahydro-1H-pyrrolizin-7a (5H)-yl)methoxy)-1-fluoro-5-methyl-5a,6,7,8,9,10-hexahydro-5H-4-oxa-3,10a, 11,13,14-pentaaza-6,9-methanonaphtho[1,8-ab]heptalene-2-yl)-5,6-difluoronaphthalen-2-amine]
[1]
  pIC50: 7.48
[2]; [3]
  pIC50: 7.45
AGS cells (KRAS G12D)
  pIC50: 7.80

## C#Cc1c(F)ccc2cc(O)cc(-c3nc4c5c(nc(OC[C@@]67CCCN6C[C@H](F)C7)nc5c3F)N3C[C@H]5CC[C@H](N5)[C@H]3[C@H](C)O4)c12 [Example Z552, 5-ethynyl-6-fluoro-4-((5S,5aS,6S,9R)-1-fluoro-12-(((2R,7aS)-2-fluorotetrahydro-1H-pyrrolizin-7a (5H)-yl)methoxy)-5-methyl-5a,6,7,8,9,10-hexahydro-5H-4-oxa-3,10a,11,13,14-pentaaza-6,9-methanonaphtho[1,8-ab]heptalen-2-yl) naphthalen-2-ol]
[1]
  pIC50: 8.24
[2]; [3]
  pIC50: 9.17
AGS cells (KRAS G12D)
  pIC50: 9.28

## Cc1cc(-c2nc3c4c(nc(OCC5(CN6CCOCC6)CC5)nc4c2F)N2C[C@H]4CC[C@H](N4)[C@H]2[C@H](C)O3)c(C)c(N)c1C1CC1 [Example Z716, 2-cyclopropyl-5-((5S,5aS,6S,9R)-1-fluoro-5-methyl-12-((1-(morpholinomethyl)cyclopropyl)methoxy)-5a,6,7,8,9,10-hexahydro-5H-4-oxa-3,10a, 11,13,14-pentaaza-6,9-methanonaphtho[1,8-ab]heptalen-2-yl)-3,6-dimethylaniline]
[1]
  pIC50: 7.05
[2]; [3]
  pIC50: 7.09
AGS cells (KRAS G12D)
  pIC50: 7.31

## C#Cc1cccc2cc(N)cc(-c3nc4c5c(nc(OCC67CC(=C)CN6C[C@H](F)C7)nc5c3F)N3C[C@H]5CC[C@H](N5)[C@H]3[C@H](C)O4)c12 (stereo partly drawn) [Example Z699, 5-ethynyl-4-((5S,5aS,6S,9R)-1-fluoro-12-(((2R)-2-fluoro-6-methylenetetrahydro-1H-pyrrolizin-7a (5H)-yl)methoxy)-5-methyl-5a,6,7,8,9,10-hexahydro-5H-4-oxa-3,10a, 11,13,14-pentaaza-6,9-methanonaphtho[1,8-ab]heptalen-2-yl) naphthalen-2-amine]
[1]
  pIC50: 8.63
[2]; [3]
  pIC50: 9.36
AGS cells (KRAS G12D)
  pIC50: 8.70

## C#Cc1cccc2cc(O)cc(-c3nc4c5c(nc(OC[C@@]67CCCN6C[C@H](F)C7)nc5c3F)N3C[C@H]5CC[C@H](N5)[C@H]3[C@H](CC)O4)c12 [Example Z386, 4-((5S,5aS,6S,9R)-5-Ethyl-1-Fluoro-12-(((2R,7aS)-2-Fluorotetrahydro-1H-Pyrrolizin-7a (5H)-Yl)Methoxy)-5a,6,7,8,9,10-Hexahydro-5H-4-Oxa-3,10a,11,13,14-Pentaaza-6,9-Methanonaphtho[1,8-Ab]Heptalen-2-Yl)-5-Ethynylnaphthalen-2-Ol]
[1]
  pIC50: 7.83
[2]; [3]
  pIC50: 9.12
AGS cells (KRAS G12D)
  pIC50: 8.62
